Test results reported in US9617267B2, “Compounds and methods for kinase modulation, and indications therefor” (Plexxikon Inc., priority 2009, dated 2017).

Experiment: Relative solubility by turbidity threshold concentration in aqueous buffers (pH 1.5, 4.5, 6.8, 7.4)
Assay type: physicochemical
Settings: for turbidity threshold (L, M, H) 1.4: pH 1.4 [sic] (method: SGF pH 1.5); for turbidity threshold (L, M, H) 4.5: pH 4.5 (SIF); for turbidity threshold (L, M, H) 6.8: pH 6.8 (SIF); for turbidity threshold (L, M, H) 7.4: pH 7.4 (HEPES)
Protocol: As an indication of relative solubility, the turbidity of compounds in aqueous solutions is assessed. To assess possible compound properties in different physiological compartments, such as stomach, intestine, and blood, a series of aqueous buffers with varying pH is used. Thus each compound is diluted into four different physiologically relevant buffers and solution turbidity is measured by spectrophotometry.
Compounds are dissolved at a concentration of 25 mM in dimethyl sulfoxide, then serially diluted 1:1 into a 96 well plate, diluting 10 times in pure dimethyl sulfoxide, with the final well of each row a dimethyl sulfoxide blank. In an assay plate, 99 μL of appropriate buffer is added to each well, and 1 μL of each sample dilution is added to the buffer, achieving a range of final total concentrations in aqueous solutions having different pH. The buffers used are Simulated Gastric Fluid (SGF-pH 1.5) 0.5M NaCl, pH 1.5; Simulated Intestinal fluid (SIF-pH 4.5 and pH 6.8) 0.05M NaH2PO4, pH 4.5 and 6.8; and Hepes Buffer (HEPES-pH 7.4) 10 mM HEPES, 150 mM NaCl, pH 7.4. Control compounds pyrene, estriol and propranolol HCl are also assessed. Plates are spun and then mixed for 1 minute, and the absorbance is read using a Tecan Safire II to read wavelengths in the visible range (490, 535, and 650 nm) at four locations per well, reflecting the degree of turbidity present. The average optical density for each wavelength in each well is graphed vs. compound concentration, and the concentration at which the curve crosses a threshold O.D. of 0.01 for each wavelength is reported as the endpoint turbidity assay result. The average of the three wavelengths is used to compare turbidity of compounds. Compounds are considered to have low solubility if the threshold concentration is <31.3 μM, moderate solubility if the threshold concentration is 31.3 μM to 250 μM, and high solubility if the threshold concentration is >250 μm.
The following table indicates the relative solubility (L=low, M=moderate, H=high) based on turbidity threshold concentration at each pH for exemplary compounds according to the invention as indicated: […]

| Compound | turbidity threshold (L, M, H) 1.4 | turbidity threshold (L, M, H) 4.5 | turbidity threshold (L, M, H) 6.8 | turbidity threshold (L, M, H) 7.4 |
| --- | --- | --- | --- | --- |
| CCCS(=O)(=O)Nc1ccc(F)c(C(=O)c2c[nH]c3ncnc(Nc4cnn(CC)c4)c23)c1F [P-1099, Propane-1-sulfonic acid {3-[4-(1-ethyl-1H-pyrazol-4-ylamino)-7H-pyrrolo[2,3-d]pyrimidine-5-carbonyl]-2,4-difluoro-phenyl}-amide] | M (moderate solubility if the threshold concentration is 31.3 μM to 250 μM) | L (low solubility if the threshold concentration is <31.3 μM) | M (moderate solubility if the threshold concentration is 31.3 μM to 250 μM) | M (moderate solubility if the threshold concentration is 31.3 μM to 250 μM) |
| CCCS(=O)(=O)Nc1ccc(F)c(C(=O)c2c[nH]c3ncnc(NC(C)C)c23)c1F [P-1051, Propane-1-sulfonic acid [2,4-difluoro-3-(4-isopropylamino-7H-pyrrolo[2,3-d]pyrimidine-5-carbonyl)-phenyl]-amide] | H (high solubility if the threshold concentration is >250 μm) | M (moderate solubility if the threshold concentration is 31.3 μM to 250 μM) | M (moderate solubility if the threshold concentration is 31.3 μM to 250 μM) | M (moderate solubility if the threshold concentration is 31.3 μM to 250 μM) |
| CCCS(=O)(=O)Nc1ccc(F)c(C(=O)c2c[nH]c3ncnc(NCC(C)C)c23)c1F [P-1088, Propane-1-sulfonic acid [2,4-difluoro-3-(4-isobutylamino-7H-pyrrolo[2,3-d]pyrimidine-5-carbonyl)-phenyl]-amide] | M (moderate solubility if the threshold concentration is 31.3 μM to 250 μM) | L (low solubility if the threshold concentration is <31.3 μM) | L (low solubility if the threshold concentration is <31.3 μM) | L (low solubility if the threshold concentration is <31.3 μM) |
| CCCS(=O)(=O)Nc1ccc(F)c(C(=O)c2c[nH]c3ncnc(Nc4cccc(OC)c4)c23)c1F [P-1085, Propane-1-sulfonic acid {2,4-difluoro-3-[4-(3-methoxy-phenylamino)-7H-pyrrolo[2,3-d]pyrimidine-5-carbonyl]-phenyl}-amide] | L (low solubility if the threshold concentration is <31.3 μM) | L (low solubility if the threshold concentration is <31.3 μM) | L (low solubility if the threshold concentration is <31.3 μM) | L (low solubility if the threshold concentration is <31.3 μM) |
| CCCS(=O)(=O)Nc1ccc(F)c(C(=O)c2c[nH]c3ncnc(Nc4ccc(Cl)cc4)c23)c1F [P-1087, Propane-1-sulfonic acid {3-[4-(4-chloro-phenylamino)-7H-pyrrolo[2,3-d]pyrimidine-5-carbonyl]-2,4-difluoro-phenyl}-amide] | M (moderate solubility if the threshold concentration is 31.3 μM to 250 μM) | L (low solubility if the threshold concentration is <31.3 μM) | M (moderate solubility if the threshold concentration is 31.3 μM to 250 μM) | M (moderate solubility if the threshold concentration is 31.3 μM to 250 μM) |
| CCCS(=O)(=O)Nc1ccc(F)c(C(=O)c2c[nH]c3ncnc(Nc4ccncc4)c23)c1F [P-1076, Propane-1-sulfonic acid {2,4-difluoro-3-[4-(pyridin-4-ylamino)-7H-pyrrolo[2,3-d]pyrimidine-5-carbonyl]-phenyl}-amide] | H (high solubility if the threshold concentration is >250 μm) | H (high solubility if the threshold concentration is >250 μm) | H (high solubility if the threshold concentration is >250 μm) | H (high solubility if the threshold concentration is >250 μm) |
| CCCS(=O)(=O)Nc1ccc(F)c(C(=O)c2c[nH]c3ncnc(Nc4cccc(F)c4)c23)c1F [P-1094, Propane-1-sulfonic acid {2,4-difluoro-3-[4-(3-fluoro-phenylamino)-7H-pyrrolo[2,3-d]pyrimidine-5-carbonyl]-phenyl}-amide] | L (low solubility if the threshold concentration is <31.3 μM) | L (low solubility if the threshold concentration is <31.3 μM) | M (moderate solubility if the threshold concentration is 31.3 μM to 250 μM) | L (low solubility if the threshold concentration is <31.3 μM) |
| CCCS(=O)(=O)Nc1ccc(F)c(C(=O)c2c[nH]c3ncnc(Nc4cccc(Cl)c4)c23)c1F [P-1084, Propane-1-sulfonic acid {3-[4-(3-chloro-phenylamino)-7H-pyrrolo[2,3-d]pyrimidine-5-carbonyl]-2,4-difluoro-phenyl}-amide] | M (moderate solubility if the threshold concentration is 31.3 μM to 250 μM) | M (moderate solubility if the threshold concentration is 31.3 μM to 250 μM) | M (moderate solubility if the threshold concentration is 31.3 μM to 250 μM) | M (moderate solubility if the threshold concentration is 31.3 μM to 250 μM) |
| CCCS(=O)(=O)Nc1ccc(F)c(C(=O)c2c[nH]c3ncnc(CC(C)C)c23)c1F [P-1014, Propane-1-sulfonic acid [2,4-difluoro-3-(4-isobutyl-7H-pyrrolo[2,3-d]pyrimidine-5-carbonyl)-phenyl]-amide] | M (moderate solubility if the threshold concentration is 31.3 μM to 250 μM) |  | M (moderate solubility if the threshold concentration is 31.3 μM to 250 μM) | M (moderate solubility if the threshold concentration is 31.3 μM to 250 μM) |
| CCCS(=O)(=O)Nc1ccc(F)c(C(=O)c2c[nH]c3ncnc(NC4CC4)c23)c1F [P-1041, Propane-1-sulfonic acid [3-(4-cyclopropylamino-7H-pyrrolo[2,3-d]pyrimidine-5-carbonyl)-2,4-difluoro-phenyl]-amide] | H (high solubility if the threshold concentration is >250 μm) | M (moderate solubility if the threshold concentration is 31.3 μM to 250 μM) | M (moderate solubility if the threshold concentration is 31.3 μM to 250 μM) | M (moderate solubility if the threshold concentration is 31.3 μM to 250 μM) |
| CCCS(=O)(=O)Nc1ccc(F)c(C(=O)c2c[nH]c3ncnc(NC4CCN(CC)CC4)c23)c1F [P-1095, Propane-1-sulfonic acid {3-[4-(1-ethyl-piperidin-4-ylamino)-7H-pyrrolo[2,3-d]pyrimidine-5-carbonyl]-2,4-difluoro-phenyl}-amide] | H (high solubility if the threshold concentration is >250 μm) | H (high solubility if the threshold concentration is >250 μm) | H (high solubility if the threshold concentration is >250 μm) | H (high solubility if the threshold concentration is >250 μm) |
